Laboratory results from patent US4714706A, “Pyridyloxy derivatives and their use as insecticides” (Sumitomo Chemical Company, Limited, priority 1985, dated 1987).
Read-outs that look alike come from different tables or passages of the source.

Legend:
[1] = tested on: common mosquito (Culex pipiens pallens); assay: Rate of emergence of last instar larvae of common mosquito reared 7 days in treated water (Test Example 1); assay type: in vivo; details: 3.5 ppm
Description: An emulsifiable concentrate prepared according to Formulation Example 1 was diluted with water to make a 400 fold dilution. The dilution (0.7 ml) was added to 100 ml of distilled water. Last instar larvae of common mosquito (Culex pipiens pallens) were released therein and reared for 7 days until their emergence. The rate of emergence was observed according to the following criteria: […]

[2] = tested on: housefly (Musca domestica); assay: Emergence inhibition of housefly larvae reared in treated artificial culture (Test Example 2); assay type: in vivo; details: read-out: Emergence inhibition
Description: Powdered animal feed (2 g) was thoroughly mixed with bran (14 g). An emulsifiable concentrate prepared according to Formulation Example 1 was diluted with water to a designed concentration and the dilution was added to the above mixture. The resultant mixture was stirred well to make an artificial culture. Thirty larvae of housefly (Musca domestica) were reared therein until their pupation. The obtained pupae were placed into a plastic cup, and the rate of emergence was determined. According to the following equation, the emergence inhibition (%) was calculated: [formula]

[3] = last instar larvae of Culex pipiens pallens, reared 7 days
[4] = 0.3 ppm, Musca domestica larvae

SMILES	Rate of emergence [1, 3]	inhibition at 0.3 ppm [2, 4] [%]	inhibition at 1 ppm ([2]; 1 ppm, Musca domestica larvae) [%]	inhibition at 3 ppm ([2]; 3 ppm, Musca domestica larvae) [%]	also measured
COC(C)(C)CCCC(C)C/C=C/C(C)=C/C(=O)OC(C)C (stereo not drawn) [(a), methoprene, reference compound]	–	–	–	–	Rate of emergence ([1]; 168 h): A (less than 10%); inhibition at 0.3 ppm ([2]; Musca domestica): 2%; inhibition at 1 ppm ([2]; Musca domestica): 13%; inhibition at 3 ppm ([2]; Musca domestica): 60%
CC(C)COc1ccc(OCCOc2ccccn2)cc1 [Compound No. 2]	A (less than 10%)	3	42	100	–
CC(C)CCOc1ccc(OCCOc2ccccn2)cc1 [Compound No. 7]	A (less than 10%)	31	87	100	–
CCCCOc1ccc(OCCOc2ccccn2)cc1 [Compound No. 9]	A (less than 10%)	–	–	–	–
CC(C)CCOc1ccc(OCCSc2ccccn2)cc1 [Compound No. 22]	A (less than 10%)	–	–	–	–
CC(C)COCc1ccc(OCCOc2nccs2)cc1 [Compound No. 29]	A (less than 10%)	100	100	100	–
COC(C)(C)CCCC(C)CCCCOc1ccccn1 (stereo not drawn) [compound 1]	A (less than 10%)	–	–	–	–
COC(C)(C)COc1ccc(OCCOc2ccccn2)cc1 [compound 3]	A (less than 10%)	–	–	–	–
CC(C)CCCC(C)CCCCOc1ncccn1 (stereo not drawn) [compound 4]	A (less than 10%)	–	–	–	–
C=C(C)COc1ccc(OCCOc2ccccn2)cc1 [compound 5]	A (less than 10%)	–	–	–	–
C=CCOc1ccc(OCCOc2ccccn2)cc1 [compound 6]	A (less than 10%)	–	–	–	–
CCOc1ccc(OCCOc2ccccn2)cc1 [compound 8]	A (less than 10%)	–	–	–	–
CCCOc1ccc(OCCOc2ccccn2)cc1 [compound 10]	A (less than 10%)	–	–	–	–
CCCCCOc1ccc(OCCOc2ccccn2)cc1 [compound 11]	A (less than 10%)	–	–	–	–
CCC(C)COc1ccc(OCCOc2ccccn2)cc1 (stereo not drawn) [compound 12]	A (less than 10%)	0	20	83	–
CC(C)(C)CCOc1ccc(OCCOc2ccccn2)cc1 [compound 13]	A (less than 10%)	–	–	–	–
CC(C)(C)COc1ccc(OCCOc2ccccn2)cc1 [compound 14]	A (less than 10%)	–	–	–	–
CC(C)CCOc1ccc(OCC(C)Oc2ccccn2)cc1 (stereo not drawn) [compound 15]	A (less than 10%)	0	43	93	–

SMILES	Rate of emergence [1, 3]	inhibition at 0.3 ppm [2, 4] [%]	inhibition at 1 ppm ([2]; 1 ppm, Musca domestica larvae) [%]	inhibition at 3 ppm ([2]; 3 ppm, Musca domestica larvae) [%]	also measured
CC(C)CCOc1ccc(OCCOc2nccs2)cc1 [compound 16]	A (less than 10%)	45	96	100	–
CC(C)CCOc1ccc(OC(C)COc2ncccn2)cc1 (stereo not drawn) [compound 17]	A (less than 10%)	–	–	–	–
CC(C)CCOc1ccc(OC(C)COc2ccccn2)cc1 (stereo not drawn) [compound 18]	A (less than 10%)	–	–	–	–
CC(C)CCOc1ccc(OCC(C)Oc2ncccn2)cc1 (stereo not drawn) [compound 19]	A (less than 10%)	–	–	–	–
CC(C)CCOc1ccc(OCCOc2ncccn2)cc1 [compound 20]	A (less than 10%)	–	–	–	–
CC(C)CCOc1ccc(OCCSC2=NCCS2)cc1 [compound 21]	A (less than 10%)	–	–	–	–
CC(C)CCOc1ccc(OCCSc2ncccn2)cc1 [compound 23]	A (less than 10%)	–	–	–	–
CC(C)CCOc1ccc(OC(C)COc2nccs2)cc1 (stereo not drawn) [compound 24]	A (less than 10%)	–	–	–	–
CC(C)CCOc1ccc(OCC(C)Oc2nccs2)cc1 (stereo not drawn) [compound 25]	A (less than 10%)	8	58	100	–
CC(C)COc1ccc(OCCOc2nccs2)cc1 [compound 26]	A (less than 10%)	11	61	100	–
COC(C)(C)COc1ccc(OCCOc2nccs2)cc1 [compound 27]	A (less than 10%)	–	–	–	–
CC(C)COCc1ccc(OCCOc2ccccn2)cc1 [compound 28]	A (less than 10%)	93	100	100	–
CC(C)CCOc1ccc(OCCOc2nccs2)cc1Cl [compound 30]	A (less than 10%)	–	–	–	–
Cc1cc(OCCOc2nccs2)cc(C)c1OCCC(C)C [compound 31]	A (less than 10%)	–	–	–	–
CC(C)CCOc1ccc(OCCOc2ccccn2)cc1Cl [compound 32]	A (less than 10%)	3	56	94	–
Cc1cc(OCCOc2ccccn2)cc(C)c1OCCC(C)C [compound 33]	A (less than 10%)	–	–	–	–
CC(C)CCCc1ccc(OCCOc2ccccn2)cc1 [compound 34]	A (less than 10%)	41	67	100	–
CC(C)CCCc1ccc(OCCOc2nccs2)cc1 [compound 35]	A (less than 10%)	51	100	100	–
